Data on one compound can be found in patent publication US20250205195A1, “BENZYLOXY-BENZYLAMINYL AMINO ACID DERIVATIVE FOR ADJUSTING TSLP/TSLPR SIGNAL TRANSMISSION” (AMTIXBIO CO., LTD., priority 2021, published 2025).

This assay relates to TSLP. Put plainly: TNF-α-induced TSLP in HaCaT cells (ELISA). It counts as cell-based, human. As to conditions: HaCaT culture supernatant, TNF-α stimulated, 1 h pretreatment, equal amounts of compounds. On the procedure:
Human keratinocyte HaCaT cells (obtained from the Korean Cell Line Bank) were seeded in a 12-well plate at an initial density of 2×10^5 cells/well and cultured at 37° C. for 16 to 24 hours. FK506 (Sigma), compounds 27 and 29 of the present invention were then added to the HaCaT cell culture medium at final concentrations of 0, 1, 2, 4, and 8 µg/mL, and the cells were cultured at 37° C. for 1 hour. Next, to induce TSLP, the culture medium was treated with TNF-α (Sigma-Aldrich, USA) to a final concentration of 100 ng/mL, and the cells were cultured for an additional 24 hours at 37° C. The culture supernatant was collected, and the amount of induced TSLP from HaCaT cells was determined using an ELISA kit (R&D Systems, USA) according to the manufacturer's instructions. […] Under the same conditions, to compare the TSLP reduction efficiency R.R. (Reduction rate) of compound 27, positive control compound and compound 29, equal amounts of compounds 27, 29 and FK506 (Sigma-Aldrich, USA) were pretreated for 1 hour. The amount of TSLP released into the culture supernatant from HaCaT cells stimulated by TNF-α was quantitatively analyzed and presented in Table 3 and FIG. 3 (c).
Background: ELISA stands for enzyme-linked immunosorbent assay.

In the case of `CCC(NC)C(=O)NCc1ccc(OCc2ccc(Cl)cc2)cc1` (racemic) [Compound 29, (R)/(S)—N-(4-((4-chlorobenzyl)oxy)benzyl)-2-(methylamino)butanamide], the “R.R (Reduction rate) of TSLP” value is given as 58% and the TSLP was determined as 210 ng/mL.
